Results taken from ChEMBL document CHEMBL1141795, “Aspirochlorine class compounds from Aspergillus flavus inhibit azole-resistant Candida albicans” (J Nat Prod, 2005).
pIC50: −log10 of the molar value.

Experiments:
[1] = tested on: CCRF-CEM; assay: Cytotoxicity against human CEM cells after 96 hrs; format: functional, cell-based
[2] = tested on: Candida albicans; assay: Antifungal activity against azole-resistant Candida albicans 99-788; format: functional, organism-based
[3] = in vitro; settings: human
Description: Therapeutic index, IC50 for human CEM cells to IC 50 for azole-resistant Candida albicans 99-788

[4] = CEM cells (versus azole-resistant Candida albicans 99-788)

Row | SMILES | pIC50 [1] | pIC50 [2] | selectivity ratio ([3]; ccrf-cem) | selectivity ratio [3, 4]
1 | CC(C)C[C@@H]1C(=O)N[C@@H](Cc2c[nH]c3ccccc23)C(=O)N1C | < 4.51 | < 4.51 |  | 
2 | C[C@@H]1[C@H](O)[C@@H](C)/C=C/C=C/C=C/C=C/C=C/C=C/C=C/[C@H](O[C@@H]2O[C@H](C)[C@@H](O)[C@H](N)[C@@H]2O)C[C@@H]2O[C@](O)(C[C@@H](O)C[C@@H](O)[C@H](O)CC[C@@H](O)C[C@@H](O)CC(=O)O[C@H]1C)C[C@H](O)[C@H]2C(=O)O [AMPHOTERICIN B] | 3.80 | 6.80 | 1000 | 
3 | CON1C(=O)[C@H]2NC(=O)[C@]13Oc1cc(O)c(Cl)cc1[C@@H]3SS2 [ASPIROCHLORINE] | 6.24 | 7.55 |  | 20
4 | CN1C(=O)[C@]23CC4=CC=C[C@H](O)[C@H]4N2C(=O)[C@@]1(CO)SS3 [GLIOTOXIN] | 6.82 | 5.51 |  | 
5 | COC1=CC(=O)C[C@@H](C)[C@]12Oc1c(Cl)c(OC)cc(OC)c1C2=O [GRISEOFULVIN] | 5.00 | < 4.55 |  | 
6 | CON1C(=O)C2NC(=O)[C@@]13Oc1cc(O)c(Cl)cc1[C@@H]3SSSS2 [TETRATHIOASPIROCHLORINE] | 5.38 | 7.08 |  | 50
